Measured values taken from the supplement of paper PMC11451515.

What was measured:
Conditions in all cases: 48 h
[1] = tested on: SEM cells; experiment: cell viability relative to DMSO control; higher = less cytotoxic
Summary of the method: (§1)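 Viability values are per-plate percentages of DMSO wells, with background from cell-free wells. Library compounds in DMSO were pin-dosed, in an 11-point threefold series from 47 μM to 0.79 nM, onto NOMO1 or SEM (500 cells/well) or P12-Ichikawa (1000 cells/well) leukemia cells in 1536-well plates (5 μl). Those cells had been adapted for at least four passages in each medium, and CellTiter-Glo One luminescence was read after 48 h at 37°C.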

[2] = tested on: P12-Ichikawa; experiment: as above
Summary of the method: as §1

[3] = tested on: NOMO1; experiment: as above
Summary of the method: as §1

[4] = tested on: SEM cells; experiment: AUC of viability dose-response curve (% viability x log10 dose units); higher = less sensitive
Summary of the method: (§2)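 Leukemia cells adapted to each medium were seeded in 1536-well plates (500 or 1000 cells/well). They were dosed with library compounds in DMSO at 11 threefold doses, 47 μM to 0.79 nM, for 48 h at 37°C. CellTiter-Glo One luminescence was normalised per plate to DMSO and cell-free wells. Area under the curve was integrated by trapezoidal rule over log10 doses on a four-parameter log-logistic fit; curves exceeding full viability were scaled and curves failing quality control removed.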

[5] = tested on: P12-Ichikawa; experiment: as above
Summary of the method: as §2

[6] = tested on: NOMO1; experiment: as above
Summary of the method: as §2

OC[C@@H](O)[C@@H](O)[C@H](O)[C@@H](O)CO
cell viability [%]
Conditions | [1] | [2] | [3]
HPLM + 10% dialyzed FBS, 0.000781 µM | 68.4 | 106 | 96.4
HPLM + 10% dialyzed FBS, 0.00234 µM | 85.4 | 110 | 116
HPLM + 10% dialyzed FBS, 0.00702 µM | 88.2 | 107 | 129
HPLM + 10% dialyzed FBS, 0.0211 µM | 105 | 108 | 133
HPLM + 10% dialyzed FBS, 0.0632 µM | 98.4 | 127 | 131
HPLM + 10% dialyzed FBS, 0.19 µM | 101 | 127 | 131
HPLM + 10% dialyzed FBS, 0.569 µM | 13.8 | 112 | 130
HPLM + 10% dialyzed FBS, 1.71 µM | 60 | 112 | 132
HPLM + 10% dialyzed FBS, 5.12 µM | 103 | 124 | 129
HPLM + 10% dialyzed FBS, 15.4 µM | 97 | 114 | 123
HPLM + 10% dialyzed FBS, 46.1 µM | 105 | 122 | 135
RPMI 5 mM glucose + 10% FBS, 0.000781 µM | 102 | 116 | 106
RPMI 5 mM glucose + 10% FBS, 0.00234 µM | 105 | 115 | 114
RPMI 5 mM glucose + 10% FBS, 0.00702 µM | 103 | 122 | 108
RPMI 5 mM glucose + 10% FBS, 0.0211 µM | 99.5 | 123 | 111
RPMI 5 mM glucose + 10% FBS, 0.0632 µM | 113 | 136 | 130
RPMI 5 mM glucose + 10% FBS, 0.19 µM | 111 | 126 | 109
RPMI 5 mM glucose + 10% FBS, 0.569 µM | 11.4 | 132 | 107
RPMI 5 mM glucose + 10% FBS, 1.71 µM | 110 | 141 | 110
RPMI 5 mM glucose + 10% FBS, 5.12 µM | 112 | 130 | 114
RPMI 5 mM glucose + 10% FBS, 15.4 µM | 116 | 135 | 112
RPMI 5 mM glucose + 10% FBS, 46.1 µM | 108 | 139 | 114
RPMI 5 mM glucose + 10% dialyzed FBS, 0.000781 µM | 104 | 109 | 102
RPMI 5 mM glucose + 10% dialyzed FBS, 0.00234 µM | 97.4 | 109 | 112
RPMI 5 mM glucose + 10% dialyzed FBS, 0.00702 µM | 119 | 120 | 99.5
RPMI 5 mM glucose + 10% dialyzed FBS, 0.0211 µM | 97.3 | 109 | 111
RPMI 5 mM glucose + 10% dialyzed FBS, 0.0632 µM | 108 | 123 | 113
RPMI 5 mM glucose + 10% dialyzed FBS, 0.19 µM | 124 | 123 | 137
RPMI 5 mM glucose + 10% dialyzed FBS, 0.569 µM | 12.5 | 117 | 122
RPMI 5 mM glucose + 10% dialyzed FBS, 1.71 µM | 118 | 120 | 108
RPMI 5 mM glucose + 10% dialyzed FBS, 5.12 µM | 133 | 126 | 135
RPMI 5 mM glucose + 10% dialyzed FBS, 15.4 µM | 120 | 118 | 127
RPMI 5 mM glucose + 10% dialyzed FBS, 46.1 µM | 113 | 127 | 131

AUC of viability dose-response curve
Conditions | [4] | [5] | [6]
HPLM + 10% dialyzed FBS | 401 | 452 | 465
RPMI 5 mM glucose + 10% FBS | 472 | 453 | 472
RPMI 5 mM glucose + 10% dialyzed FBS | 452 | 449 | 445

CC(C)N[C@@H]1CCn2c(=O)[nH]c3cccc(c32)[C@H]1O
cell viability [%]
Conditions | [1] | [2] | [3]
HPLM + 10% dialyzed FBS, 0.000781 µM | 107 | 111 | –
HPLM + 10% dialyzed FBS, 0.00234 µM | 119 | 112 | –
HPLM + 10% dialyzed FBS, 0.00702 µM | 101 | 118 | –
HPLM + 10% dialyzed FBS, 0.0211 µM | 104 | 120 | –
HPLM + 10% dialyzed FBS, 0.0632 µM | 112 | 117 | –
HPLM + 10% dialyzed FBS, 0.19 µM | 108 | 115 | –
HPLM + 10% dialyzed FBS, 0.569 µM | 120 | 109 | –
HPLM + 10% dialyzed FBS, 1.71 µM | 112 | 112 | –
HPLM + 10% dialyzed FBS, 5.12 µM | 122 | 97.1 | –
HPLM + 10% dialyzed FBS, 15.4 µM | 122 | 107 | –
HPLM + 10% dialyzed FBS, 46.1 µM | 100 | 100 | –
RPMI 5 mM glucose + 10% FBS, 0.000781 µM | – | 129 | 119
RPMI 5 mM glucose + 10% FBS, 0.00234 µM | – | 112 | 110
RPMI 5 mM glucose + 10% FBS, 0.00702 µM | – | 121 | 121
RPMI 5 mM glucose + 10% FBS, 0.0211 µM | – | 122 | 119
RPMI 5 mM glucose + 10% FBS, 0.0632 µM | – | 114 | 111
RPMI 5 mM glucose + 10% FBS, 0.19 µM | – | 104 | 108
RPMI 5 mM glucose + 10% FBS, 0.569 µM | – | 116 | 117
RPMI 5 mM glucose + 10% FBS, 1.71 µM | – | 110 | 104
RPMI 5 mM glucose + 10% FBS, 5.12 µM | – | 110 | 105
RPMI 5 mM glucose + 10% FBS, 15.4 µM | – | 113 | 103
RPMI 5 mM glucose + 10% FBS, 46.1 µM | – | 106 | 55.6
RPMI 5 mM glucose + 10% dialyzed FBS, 0.000781 µM | 102 | 105 | –
RPMI 5 mM glucose + 10% dialyzed FBS, 0.00234 µM | 112 | 104 | –
RPMI 5 mM glucose + 10% dialyzed FBS, 0.00702 µM | 113 | 116 | –
RPMI 5 mM glucose + 10% dialyzed FBS, 0.0211 µM | 122 | 114 | –
RPMI 5 mM glucose + 10% dialyzed FBS, 0.0632 µM | 125 | 109 | –
RPMI 5 mM glucose + 10% dialyzed FBS, 0.19 µM | 123 | 108 | –
RPMI 5 mM glucose + 10% dialyzed FBS, 0.569 µM | 107 | 99.6 | –
RPMI 5 mM glucose + 10% dialyzed FBS, 1.71 µM | 117 | 105 | –
RPMI 5 mM glucose + 10% dialyzed FBS, 5.12 µM | 101 | 104 | –
RPMI 5 mM glucose + 10% dialyzed FBS, 15.4 µM | 125 | 97.9 | –
RPMI 5 mM glucose + 10% dialyzed FBS, 46.1 µM | 102 | 93.8 | –

AUC of viability dose-response curve
Conditions | [4] | [5] | [6]
HPLM + 10% dialyzed FBS | 463 | 459 | 426
RPMI 5 mM glucose + 10% FBS | 465 | 437 | 460
RPMI 5 mM glucose + 10% dialyzed FBS | 473 | 457 | 424

O=c1[nH]c(=O)n([C@H]2C[C@H](O)[C@@H](CO)O2)cc1/C=C/Br
cell viability [%]
Conditions | [1] | [2] | [3]
HPLM + 10% dialyzed FBS, 0.000781 µM | 92.7 | 103 | 89.1
HPLM + 10% dialyzed FBS, 0.00234 µM | 116 | 126 | 108
HPLM + 10% dialyzed FBS, 0.00702 µM | 101 | 105 | 120
HPLM + 10% dialyzed FBS, 0.0211 µM | 120 | 115 | 108
HPLM + 10% dialyzed FBS, 0.0632 µM | 119 | 102 | 123
HPLM + 10% dialyzed FBS, 0.19 µM | 119 | 61.2 | 108
HPLM + 10% dialyzed FBS, 0.569 µM | 114 | 60.8 | 96.2
HPLM + 10% dialyzed FBS, 1.71 µM | 100 | 70 | 96.5
HPLM + 10% dialyzed FBS, 5.12 µM | 86.4 | 75.8 | 79.4
HPLM + 10% dialyzed FBS, 15.4 µM | 78.7 | 61.4 | 72.4
HPLM + 10% dialyzed FBS, 46.1 µM | 60.2 | 47.8 | 55.4
RPMI 5 mM glucose + 10% FBS, 0.000781 µM | 101 | 97.6 | 93.9
RPMI 5 mM glucose + 10% FBS, 0.00234 µM | 121 | 107 | 111
RPMI 5 mM glucose + 10% FBS, 0.00702 µM | 114 | 103 | 97.7
RPMI 5 mM glucose + 10% FBS, 0.0211 µM | 109 | 103 | 106
RPMI 5 mM glucose + 10% FBS, 0.0632 µM | 123 | 105 | 114
RPMI 5 mM glucose + 10% FBS, 0.19 µM | 105 | 110 | 101
RPMI 5 mM glucose + 10% FBS, 0.569 µM | 119 | 108 | 113
RPMI 5 mM glucose + 10% FBS, 1.71 µM | 117 | 106 | 117
RPMI 5 mM glucose + 10% FBS, 5.12 µM | 115 | 107 | 106
RPMI 5 mM glucose + 10% FBS, 15.4 µM | 119 | 110 | 120
RPMI 5 mM glucose + 10% FBS, 46.1 µM | 120 | 106 | 110
RPMI 5 mM glucose + 10% dialyzed FBS, 0.000781 µM | 90.8 | 92.6 | 123
RPMI 5 mM glucose + 10% dialyzed FBS, 0.00234 µM | 117 | 104 | 110
RPMI 5 mM glucose + 10% dialyzed FBS, 0.00702 µM | 103 | 109 | 102
RPMI 5 mM glucose + 10% dialyzed FBS, 0.0211 µM | 98.6 | 118 | 122
RPMI 5 mM glucose + 10% dialyzed FBS, 0.0632 µM | 106 | 112 | 119
RPMI 5 mM glucose + 10% dialyzed FBS, 0.19 µM | 112 | 106 | 114
RPMI 5 mM glucose + 10% dialyzed FBS, 0.569 µM | 116 | 103 | 107
RPMI 5 mM glucose + 10% dialyzed FBS, 1.71 µM | 116 | 108 | 121
RPMI 5 mM glucose + 10% dialyzed FBS, 5.12 µM | 111 | 108 | 134
RPMI 5 mM glucose + 10% dialyzed FBS, 15.4 µM | 102 | 102 | 130
RPMI 5 mM glucose + 10% dialyzed FBS, 46.1 µM | 82.2 | 100 | 105

AUC of viability dose-response curve
Conditions | [4] | [5] | [6]
HPLM + 10% dialyzed FBS | 436 | 357 | 425
RPMI 5 mM glucose + 10% FBS | 460 | 472 | 456
RPMI 5 mM glucose + 10% dialyzed FBS | 469 | 477 | 454
